Assays:
[1] = test system: CA3 region of rat hippocampal slices; test: Synchronized bursting induced by elevated [K+]o in rat hippocampal slices ex corpora (extracellular CA3 recording); assay type: cell-based; details: for synchronized bursting: 10 mM glucose; for epileptic discharges evoked in vitro (relative burst frequency) / epileptiform bursting frequency: normal glucose conditions; for epileptic discharges evoked in vitro (relative burst frequency): summary statement; for block of the increase in bursting caused by the PEPCK inhibitor 3-MCP: slices simultaneously exposed to 3-MCP, FIGS. 5A, 5B; for epileptiform bursting frequency: FIG. 6A; for burst frequency: 20 mM lactate or 20 mM pyruvate in place of 10 mM glucose in ACSF, 7.5 mM [K+]o
Experimental: The effect of various energy sources on synchronized bursting induced by elevation of [K^+]o in rat hippocampal slices ex corpora was evaluated.
In these experiments, postnatal day 28 to 40 male Sprague-Dawley rats were anesthetized and decapitated. Brains were removed and transferred to ice cold artificial cerebrospinal fluid (ACSF, comprising 124 mM NaCl, 5 mM KCl, 1.25 mM NaH2PO4, 1.5 mM MgSO4, 26 mM NaHCO3 and 2 mM CaCl2), supplemented with 10 mM glucose, which was continuously bubbled with 95% O2 and 5% CO2. Transverse hippocampal slices (˜500 microns) were prepared on a Leica VT1000s vibratome (Wetzlar Germany). The slices were allowed to recover for 1 hour at room temperature and were then transferred to an interface recording chamber at 34° C. in ACSF with 7.5 mM [K^+]o. Extracellular recordings were made from the CA3 region with an Axioclamp 2B (Axon Instruments, Forest City, Calif.) using a glass microelectrode filled with 150 mM NaCl. Data were recorded and analyzed using PClamp8 (Axon Instruments).
Synchronized bursting was induced by incubating hippocampal slices in ACSF supplemented with potassium chloride to a final concentration of 7.5 mM [K^+]o. Baseline recordings were obtained after exposure to elevated [K^+]o for 1 hour and the burst frequency had stabilized. Bursting was then recorded in ACSF containing 20 mM lactate or 20 mM pyruvate in place of the 10 mM glucose.

[2] = Duration of anticonvulsant effect of 2DG after stopping treatment while continuing twice daily stimulation; assay type: in vivo; details: 250 mg/kg twice daily for 3 months; twice daily stimulation continued
Experimental: . […]; 5 mM solutions of oxaloacetate glycolic acid, chloroacetate and thioglycolate are equivalent to 660 mg/kg 380 mg/kg, ˜620 mg/kg and 460 mg/kg. respectively. […] A practitioner skilled in the art can adjust dosage in the range up to 500-600 mg/kg 2DG and the timing of administration to produce prolonged anticonvulsant and antiepileptic effects. Efficacious dosage amounts can be adjusted to about 14 mg/kg 2-DG in children and 40 mg/kg 2-DG in adults, using therapeutic efficacy measurements (e.g., reduction in frequency or severity of seizures) as a criterion for establishing effective dosage levels.

[3] = test system: brains of animals suffering from a seizure disorder; details: as disclosed in co-owned U.S. Ser. No. 60/580,436; cited from earlier work

O=CC[C@@H](O)[C@H](O)[C@H](O)CO [2DG, 2-deoxy-D-glucose]
synchronized bursting ([1]; 1 mM 2DG in the presence of 20 mM lactate): reduced synchronized bursting | epileptic discharges evoked in vitro (relative burst frequency) [1]: effective against epileptic discharges | block of the increase in bursting caused by the PEPCK inhibitor 3-MCP [1]: could not be blocked | duration of anticonvulsant effects after stopping 2DG [2]: approximately 8 weeks | epileptic or synchronized bursting in the brains of animals [3]: effective in reducing epileptic or synchronized bursting

O=C(O)c1ncccc1S [3-MCP, 3-mercaptopicolinic acid, reference compound]
burst frequency (rate of bursting) ([1]; 3 mM 3-MCP in ACSF with 10 mM glucose): 208±28 % of baseline | rate of bursting ([1]; 3-MCP, FIGS. 5A and 5B): induces an increase in the rate of bursting

O=C(O)[C@@H](O)CO [L-glycerate]
epileptic discharges evoked in vitro (relative burst frequency) [1]: effective against epileptic discharges

C=C(OP(=O)(O)O)C(=O)O [PEP, phosphoenolpyruvate, reference compound]
burst frequency (rate of bursting) ([1]; 5 mM PEP in ACSF with 10 mM glucose, reversible): 215±32 % of baseline

O=C(O)CO [glycolic acid]
block of the increase in bursting caused by inhibition of PEPCK by 3-MCP ([1]; PEPCK substrate with 3-MCP, FIGS. 6B, 6C): modestly blocks an increase in bursting | epileptiform bursting frequency [1]: reduce epileptiform bursting frequency | epileptic discharges evoked in vitro (relative burst frequency) [1]: effective against epileptic discharges

O=C(O)CI [iodoacetate, reference compound]
synchronized bursting ([1]; 200 μM iodoacetate, ACSF with 20 mM lactate): reduced synchronized bursting | epileptic discharges evoked in vitro (relative burst frequency) [1]: effective against epileptic discharges | block of the increase in bursting caused by the PEPCK inhibitor 3-MCP [1]: could not be blocked | epileptic or synchronized bursting in the brains of animals [3]: effective in reducing epileptic or synchronized bursting

CC(O)C(=O)O (stereo not shown) [lactate, reference compound]
burst frequency ([1]; reversible): 63±8 % of the baseline

CC(=O)C(=O)O [pyruvate, reference compound]
burst frequency ([1]; reversible): 4±2 % of the baseline

O=C(O)CCl [β-chloroacetate]
epileptiform bursting frequency [1]: reduce epileptiform bursting frequency | epileptic discharges evoked in vitro (relative burst frequency) [1]: effective against epileptic discharges

thioglycolate
epileptiform bursting frequency [1]: reduce epileptiform bursting frequency | epileptic discharges evoked in vitro (relative burst frequency) [1]: effective against epileptic discharges

From patent US20060217303A1, “Compounds and Methods for Treating Seizure Disorders” (Wisconsin Alumni Research Foundation, priority 2005, published 2006)
